Measured values: patent US7045309B2, “9-substituted adenine derivatives as prodrug regulators of cell and tissue function” (The Research Foundation of State University of New York, priority 2000, dated 2006)
Where two headings read alike, the source gives them in different places.

How the values were obtained:
[1] = target: rat brain adenylyl cyclase; conditions: cited from earlier work
Ob1771 pre-adipocytes = assay: inhibition of forskolin-stimulated [3H]cAMP formation in cells prelabeled with [3H]adenine, Ob1771; type: cell-based; conditions: read-out: IC50, forskolin-stimulated [3H]cAMP formation, Ob1771 pre-adipocytes
Method: (§1) The nucleotide prodrugs were tested for their capacity to inhibit the forskolin-stimulated formation of [^3H]cAMP in cells that had been preloaded with [^3H]adenine. Human macrophages and two preadipocyte cell lines were tested.
(§2) (i) Preadipocytes: Preadipocytes were cultured in DMEM LG medium that was supplemented with 8% fetal bovine serum and 1% of an antibiotics mixture in 2 ml Petri dishes until they reached 90-95% confluence. Growth medium was removed and 1 ml of DMEM LG medium containing 2,8-[^3H]-adenine (5μCi) was added to each dish. Cells were incubated for 2 h at 37° C. Medium was removed and cells were incubated for 15 min at 37° C. in 1 ml of unsupplemented medium. The medium was removed and 1 ml of DMEM LG medium supplemented with 0.1 mg/ml bovine serum albumin and 0.1 mM 3-isobutyl-1-methylxanthine was added.
(§3) Ten microliters of a solution of the test substance was added to yield the appropriate concentration of inhibitor in the medium. After 15 min of incubation at 37° C. 3 μl of a 10 mM solution of forskolin in ethanol was added to the medium and the cells were further incubated for 15 min at 37° C. The medium was removed and the reaction was stopped by the addition of 1 ml of a freshly prepared solution of 0.5 mM solution of cAMP in 0.3 M perchloric acid. Dishes were then kept on ice for 30 min. To 800 μl of the resulting cell extract was then added 90 μl of 0.5 M triethanolammonium chloride butler (pH=7.5). The extract was then neutralized by addition of aqueous potassium hydroxide. [^3H]cAMP was purified from a 700 μl portion of this mixture by sequential chromatography on Dowex 50 and alumina as previously described. A portion of the purified sample was used to quantify the […] formed and the remainder was used to quantify recovery by UV spectroscopy.

F442A pre-adipocytes = assay: inhibition of forskolin-stimulated [3H]cAMP formation in cells prelabeled with [3H]adenine, F442A; type: cell-based; conditions: 15 min preincubation, forskolin 15 min
Method: as §1, §2, §3

[2] = tested on: rat brain adenylyl cyclase; assay: inhibition of rat brain adenylyl cyclase; type: biochemical
Method: (§4) Adenylyl cyclase activities were determined as previously described, with a reaction mixture containing 100 μM 5′ATP, 5 mM MnCl2, and 100 μM forskolin. IC50 values were determined graphically.

[3] = tested on: adenylyl cyclase isolated from these tissues; assay: effect on adenylyl cyclase isolated from the tissues; type: biochemical; conditions: concentrations up to 300 μM
Human Macrophages = assay: inhibition of forskolin-stimulated [3H]cAMP formation in cells prelabeled with [3H]adenine, macrophages; type: cell-based; conditions: read-out: IC50, forskolin-stimulated [3H]cAMP formation, Human Macrophages
Method: as §1
(ii) Macrophages. Macrophages were plated on culture dishes and allowed to adhere in RPMI culture medium. Cells were labeled with 2,8-[^3H]-adenine as described above for the preadipocytes.
as §3

[4] = tested on: isoproterenol-stimulated, cAMP/PKA-dependent Cl− channel of cardiac ventricular myocytes; assay: block of isoproterenol-stimulated Cl- channel in cardiac ventricular myocytes; type: cell-based; conditions: not shown, read-out: IC50 for block of Cl− channel function
[5] = tested on: adenylyl cyclase of Ob1771 cell membranes; assay: inhibition of adenylyl cyclase of Ob1771 cell membranes; type: biochemical; conditions: for IC50: 100 μM 5′ATP, 5 mM MnCl2, 100 μM forskolin, determined graphically
Method: as §4

rat atria = assay: contractility of isolated spontaneously contracting rat atria; conditions: preincubation with 10 μM for 15 min
Method: To test this, rat atria were excised from a male albino rat and attached to a strain gauge to allow contractions to be measured. The spontaneously contracting tissue was suspended in a chamber and allowed to equilibrate for 15 min in Krebs-Henseleit medium (Sigma K3753) supplemented with 25 mM […], 2.5 mM CaCl2, and 2 mM pyruvate, maintained at 37° and continuously gassed with […].

preadipocyte cell lines = assay: differentiation of preadipocyte cell lines; type: cell-based; conditions: both preadipocyte cell lines; not shown
[6] = Table 1, from Johnson and coll. [27-32], read-out: IC50 for rat brain adenylyl cyclase
[7] = Table 1, read-out: IC50 to inhibit adenylyl cyclase
[8] = Ob1771, 15 min preincubation, forskolin 15 min
[9] = 100 μM 5′ATP, 5 mM MnCl2, 100 μM forskolin, determined graphically, read-out: IC50, Rat Brain Adenylyl Cyclase
[10] = 2′-triphosphate forms, read-out: IC50 for inhibition of rat brain adenylyl cyclase

Compound: CC1OC(n2cnc3c(N)ncnc32)CC1OP(=O)(O)OP(=O)(O)OP(=O)(O)OP(=O)(O)O (centres unmarked) [2′,5′ddAdo 3′˜PPPP]
- IC50 [1, 6]: 7.4 nM

Compound: C[C@H]1O[C@@H](n2cnc3c(N)ncnc32)C[C@@H]1OP(=O)(O)OP(=O)(O)OP(=O)(O)O [2′,5′ddAdo 3′˜PPP]
- IC50 [1, 7]: 40 nM

Compound: CC1OC(n2cnc3c(N)ncnc32)CC1OP(=O)(O)OP(=O)(O)O (centres unmarked) [2′,5′ddAdo 3′˜PP]
- IC50 [1, 6]: 100 nM

Compound: C[C@H]1O[C@@H](n2cnc3c(N)ncnc32)C[C@@H]1OP(O)(O)=S [2′,5′ddAdo 3′˜PS]
- IC50 [1, 6]: 600 nM

Compound: C[C@H]1O[C@@H](n2cnc3c(N)ncnc32)C[C@@H]1OP(=O)(O)O [2′,5′ddAdo 3′˜P]
- IC50 [1, 6]: 460 nM

Compound: C[C@H]1O[C@@H](n2cnc3c(N)ncnc32)C[C@@H]1O [2′,5′ddAdo, 2′,5′-dideoxyadenosine]
- IC50 [1, 6]: 2700 nM

Compound: Nc1ncnc2c1ncn2C1CC(OP(=O)(O)OP(=O)(O)OP(=O)(O)OP(=O)(O)O)C(CO)O1 (centres unmarked) [2′dAdo 3′˜PPPP]
- IC50 [1, 6]: 10.5 nM

Compound: Nc1ncnc2c1ncn2C1CC(OP(=O)(O)OP(=O)(O)OP(=O)(O)O)C(CO)O1 (centres unmarked) [2′dAdo 3′˜PPP]
- IC50 [1, 6]: 90 nM

Compound: Nc1ncnc2c1ncn2C1CC(OP(=O)(O)OP(=O)(O)O)C(CO)O1 (centres unmarked) [2′dAdo 3′˜PP]
- IC50 [1, 6]: 140 nM

Compound: Nc1ncnc2c1ncn2[C@H]1C[C@H](OP(O)(O)=S)[C@@H](CO)O1 [2′dAdo 3′˜PS]
- IC50 [1, 6]: 3100 nM

Compound: Nc1ncnc2c1ncn2[C@H]1C[C@H](OP(=O)(O)O)[C@@H](CO)O1 [2′dAdo 3′˜P]
- IC50 [1, 6]: 1200 nM

Compound: Nc1ncnc2c1ncn2[C@H]1C[C@H](O)[C@@H](CO)O1 [2′dAdo]
- IC50 [1, 6]: 15000 nM

Compound: CC(C)(C)C(=O)SCCOP(=O)(OCCSC(=O)C(C)(C)C)O[C@H]1CCC[C@H]1n1cnc2c(N)ncnc21 [(1R,2S)-9-(cyclopentyl)-Ade-2′-P-bis(t-Bu-SATE)]
- IC50 (Ob1771 pre-adipocytes; [8]): > 30000 nM

Compound: CC(C)(C)C(=O)SCCOP(=O)(OCCSC(=O)C(C)(C)C)O[C@@H]1CCC[C@@H]1n1cnc2c(N)ncnc21 [(1S,2R)-9-(cyclopentyl)-Ade-2′-P-bis(t-Bu-SATE)]
- IC50 (Ob1771 pre-adipocytes; [8]): > 30000 nM

Compound: Nc1ncnc2c1ncn2[C@@H]1O[C@H](CO)[C@@H](OP(=O)(O)OP(=O)(O)OP(=O)(O)O)[C@H]1O [Ado 3′˜PPP]
- IC50 [1, 6]: 2000 nM

Compound: Nc1ncnc2c1ncn2C1OC(CO)C(OP(=O)(O)OP(=O)(O)O)C1O (centres unmarked) [Ado 3′˜PP]
- IC50 [1, 6]: 3900 nM

Compound: Nc1ncnc2c1ncn2C1OC(CO)C(OP(=O)(O)O)C1O (centres unmarked) [Ado 3′˜P]
- IC50 [1, 6]: 8900 nM

Compound: Nc1ncnc2c1ncn2[C@@H]1O[C@H](CO)[C@@H](O)[C@H]1O [Ado]
- IC50 [1, 6]: 82000 nM

Compound: CC(=O)SCCOP(=O)(OCCSC(C)=O)O[C@H]1C[C@H](n2cnc3c(N)ncnc32)O[C@@H]1C [Compound 1, 2′,5′-dideoxyadenosine-3′-O-bis(S-acetyl-2-thioethyl) phosphate]
- IC50 (F442A pre-adipocytes): 30 nM

Compound: C[C@H]1O[C@@H](n2cnc3c(N)ncnc32)C[C@@H]1OP(=O)(OCCSC(=O)C(C)(C)C)OCCSC(=O)C(C)(C)C [Compound 2, 2,5′-dideoxyadenosine-3′-O-bis(S pivaloyl-2-thioethyl) phosphate]
- IC50 (Ob1771 pre-adipocytes; [8]): 30 nM
- inhibition of Rat Brain Adenylyl Cyclase at 100 μM ([2]; at 100 μM): no inhibition
- effect on the activity of adenylyl cyclases per se, enzyme from rat brain ([2]; isolated enzyme): no effect
- effect on adenylyl cyclase isolated from these tissues [3]: no effect
- IC50 (Human Macrophages; human macrophages, 15 min preincubation, forskolin 15 min): 50 nM
- IC50 [4]: ~82 nM
- IC50 (F442A pre-adipocytes): 100 nM
- inhibition of adenylyl cyclase of Ob1771 cell membranes at 100 μM ([5]; at 100 μM): 20% inhibition
- effect on the activity of adenylyl cyclases per se, enzyme from the preadipocytes ([5]; isolated enzyme): no effect
- stimulation of contractility caused by phenylephrine (rat atria): completely blocked
- stimulation of contractility caused by forskolin (rat atria; not shown): completely blocked
- rate of differentiation (preadipocyte cell lines): accelerated rates of differentiation

Compound: C[C@H]1O[C@@H](n2cnc3c(N)ncnc32)C[C@@H]1OP(=O)(OCCSC(=O)c1ccccc1)OCCSC(=O)c1ccccc1 [Compound 3, 2,5′-dideoxyadenosine-3′-O-bis(S-benzoyl-2-thioethyl) phosphate]
- IC50 (F442A pre-adipocytes): 800 nM

Compound: C[C@H]1O[C@@H](n2cnc3c(N)ncnc32)C[C@@H]1OP(=O)(OCCSC(=O)C(C)(C)C)OCCSC(=O)C(C)(C)C [Compound 5, β-L-2′,5′-dideoxyadenosine-3′-O-bis(S-pivaloyl-2-thioethyl)-phosphate]
- IC50 (F442A pre-adipocytes): ~2000 nM

Compound: CC(C)(C)C(=O)SCCOP(=O)(OCCSC(=O)C(C)(C)C)OC[C@@H]1CC[C@H](n2cnc3c(N)ncnc32)O1 [Compound 8, β-L-2′,3′-dideoxyadenosine-5′-O-bis(S-pivaloyl-2-thioethyl)-phosphate]
- IC50 (Ob1771 pre-adipocytes; [8]): > 30000 nM

Compound: CC1OC(n2cnc3c(N)ncnc32)CC1OP1(=O)OCc2ccccc2O1 (centres unmarked) [Compound 10, 2′,5′-dideoxyadenosine-3.0-cyclosaligenyl phosphate]
- IC50 (Ob1771 pre-adipocytes): ~2000 nM
- IC50 [2, 9]: 7000 nM
- IC50 (Human Macrophages; Homo sapiens, Macrophage): ~2000 nM
- IC50 [5]: 30000 nM

Compound: Cc1cccc2c1OP(=O)(OC1CC(n3cnc4c(N)ncnc43)OC1C)OC2 (centres unmarked) [Compound 11, 2′,5′-dideoxyadenosine-3′-O-cyclo-3-methyl-saligenyl phosphate]
- IC50 (Ob1771 pre-adipocytes): ~2000 nM
- IC50 [2, 9]: 7000 nM
- IC50 [5]: 60000 nM

Compound: CC(C)(C)C(=O)SCCOP(=O)(COCCn1cnc2c(N)ncnc21)OCCSC(=O)C(C)(C)C [Compound 13, bis(t-Bu-SATE)-9-(2-phosphonomethoxyethyl)-adenine]
- IC50 (Ob1771 pre-adipocytes; [8]): > 30000 nM

Compound: C[C@H](Cn1cnc2c(N)ncnc21)OCP(=O)(OCCSC(=O)C(C)(C)C)OCCSC(=O)C(C)(C)C [Compound 16, (R)-Bis(S-pivaloyl-2-thioethyl) 9-(2-phosphonylmethoxypropyl)-adenine]
- IC50 (F442A pre-adipocytes): > 30000 nM

Compound: Nc1ncnc2c1ncn2CCOCP(=O)(O)O [PMEA, 9-(phosphonomethoxyethyl)-adenine]
- IC50 [1, 6]: 65000 nM

Compound: Nc1ncnc2c1ncn2CCOCP(=O)(O)OP(=O)(O)OP(=O)(O)O [PMEApp]
- IC50 [1, 7]: 170 nM

Compound: Nc1ncnc2c1ncn2[C@@H]1CCC[C@@H]1OP(=O)(O)OP(=O)(O)OP(=O)(O)O [reference compound]
- IC50 [2, 10]: 450 nM

Compound: Nc1ncnc2c1ncn2[C@H]1CCC[C@H]1OP(=O)(O)OP(=O)(O)OP(=O)(O)O [reference compound]
- IC50 [2, 10]: 9860 nM

Compound: Nc1ncnc2c1ncn2[C@@H]1CC[C@H](COP(=O)(O)O)O1 [β-L-2′,3′-dd-5′-AMP]
- IC50 [1, 6]: 62000 nM

Compound: Nc1ncnc2c1ncn2C1CCC(COP(=O)(O)OP(=O)(O)OP(=O)(O)O)O1 [β-L-2′,3′-dd-5′-ATP]
- IC50 [1, 7]: 24 nM

Compound: Nc1ncnc2c1ncn2[C@H]1O[C@@H](COP(=O)(O)O)[C@H](O)[C@@H]1O [β-L-5′-AMP]
- IC50 [1, 6]: 200000 nM
